Source: patent US20200165287A1, “SALT OF (SS)-ADENOSYL METHIONINE WITH INOSITOL HEXAPHOSPHATE, AND PROCESS FOR THE PREPARATION THEREOF” (GNOSIS S.p.A., priority 2017, published 2020)

Assays:
[1] = stability test, storage at +25° C. in a thermostatic stove; assay type: physicochemical
Experimental: Some samples of the products obtained as described in the previous examples are subjected to stability tests, storing them at +25° C., in a thermostatic stove.
The SAMe ion content analysis (FIG. 3) and the diastereomeric purity relative to the (SS) isomer (FIG. 4) are periodically repeated, and the result is compared with the starting value for the same sample, obtaining the results reported.
The data obtained with the product obtained according to EP 1896489 and two commercial samples of SAMe, 1,4-butanedisulphate salt (SD4 Test 1) and Pates salt (batch S1S1057B), are compared.

[2] = accelerated stability test, thermostatic stove at +55° C., 5 days; assay type: physicochemical
Experimental: The product obtained as described in Example 6 (comprising SAMe and phytic acid) and a sample of SAMe inositol hexaphosphate obtained as described in Example 5 are subjected to an accelerated stability test, incubated in a thermostatic stove at +55° C., and the analyses are repeated after 5 days.
The samples are analysed for the following values: • SAMe ion content (total of all enantiomers) determined by HPLC and expressed as % by weight • enantiomeric purity, determined by HPLC and expressed as % of (SS) isomer • active ingredient content, calculated by multiplying the previous two values and expressed as % by weight of (SS)SAMe • overall purity, determined by HPLC as SAMe area/total area of chromatogram, expressed as area %. The figure comprises the values of all known degradation impurities.

[3] = Pharmacokinetic profile in the rat (SAMe plasma levels after oral administration by cannula); assay type: in vivo, Sprague Dawley rats; conditions: by cannula in water, 134 mg/kg and 95 mg/kg, equal SAMe ion dose, 0-24 h (FIG. 1, FIG. 2)
Experimental: 70 Sprague Dawley rats (35 male and 35 female), aged 7-9 weeks and weighing 176-200 g, were acclimatized in a cage for two weeks before the start of the treatment, maintained at +22° C. and 55% relative humidity. The rats were fed on 4RF 21 (Mucedola) feed, and weighed before the beginning and at the end of the test. At the time of treatment, 32 animals per group (16 males and 16 females) were selected from those with the most similar weights, and assigned to the two treatments.
The product was administered by cannula, dissolved in water, at two dose levels, namely 134 mg/kg and 95 mg/kg. The rats were fasted overnight before administration and for a further two hours after administration. The two equimolar doses guaranteed an equal intake of SAMe ion.
The blood levels of SAMe were assayed by taking a sample from the tail vein at fixed intervals, at times 0 (pre-administration), 0.5, 1, 1.5, 2, 4, 8 and 24 hours after administration. The blood samples were centrifuged after addition of EDTA to separate the plasma from the cell fraction. The plasma was then analysed by HPLC according to the method reported in Wise, Fullerton J. Liq. Chromatogr. […]
The SAMe plasma concentration values are also used to determine, according to the Area Under Curve (AUC) calculation, the total quantity of active ingredient absorbed, obtaining the values set out in FIG. 2.

Molecule | stability of (SS)SAMe isomer content / diastereomeric purity versus starting value (FIG. 4) [1] | Purity (% area), final value ([2]; HPLC SAMe area/total area, after 5 days at +55° C.) [%] | Purity (% area), starting value ([2]; HPLC SAMe area/total area, starting value) [%] | degradation by isomerization of (SS)SAMe after the stress test ([2]; after 5 days at +55° C.) | (SS)SAMe content (active ingredient, SAMe content x enantiomeric purity), final value ([2]; after 5 days at +55° C., % by weight) [%] | (SS)SAMe content (active ingredient, SAMe content x enantiomeric purity), starting value ([2]; starting value, % by weight) [%] | absorption (AUC) and plasma concentration of SAMe versus SAMe Pates [3]
C[S@@+](CC[C@H](N)C(=O)[O-])C[C@H]1O[C@@H](n2cnc3c(N)ncnc32)[C@H](O)[C@@H]1O.O=P(O)(O)O[C@H]1[C@H](OP(=O)(O)O)[C@@H](OP(=O)(O)O)[C@H](OP(=O)(O)O)[C@@H](OP(=O)(O)O)[C@H]1OP(=O)(O)O [AT1003, SAMe inositol hexaphosphate] | stable for longer | 90.0 | 95.98 | maintains an excess of the (SS)SAMe form | 21.28 | 26.59 | –
C[S+](CC[C@H](N)C(=O)[O-])C[C@H]1O[C@@H](n2cnc3c(N)ncnc32)[C@H](O)[C@@H]1O.O=S(=O)(O)CCCCS(=O)(=O)O (some centres unmarked) [SD4 Test 1, reference compound] | stable for longer | – | – | – | – | – | –
SAMe inositol hexaphosphate [SAMe IP6] | – | – | – | – | – | – | better absorption and a higher plasma concentration of active ingredient
